Reference: the supplement of paper PMC10307832

How the values were obtained:
Test in all cases: relative viability (nuclei count vs DMSO), 5 days (fraction); higher = more cells survive
Elesclomol + Pemetrexed = compound: CN(NC(=O)CC(=O)NN(C)C(=S)c1ccccc1)C(=S)c1ccccc1 [Elesclomol] + Nc1nc2[nH]cc(CCc3ccc(C(=O)N[C@@H](CCC(=O)O)C(=O)O)cc3)c2c(=O)[nH]1 [Pemetrexed] (partner 0.2 µM)
Method in brief: (§1)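 Nuclei were stained with Hoechst during a one-step fixation (final 0.05% Triton X-100, 1% formaldehyde, 1 ug/ml Hoechst) carried out 5 days after dosing, then counted on 4× images. The cells, lung cancer lines in 1536-well plates, had been dosed by pin tool the day after seeding with one drug alone or a fixed anchor-drug dose plus five library-drug doses (not always all listed) in √10 steps. Relative viability is the nuclei count in treated wells divided by that in vehicle wells, and each value is the median of duplicate plates.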

Elesclomol + Decitabine = compound: CN(NC(=O)CC(=O)NN(C)C(=S)c1ccccc1)C(=S)c1ccccc1 [Elesclomol] + Nc1ncn([C@H]2C[C@H](O)[C@@H](CO)O2)c(=O)n1 [Decitabine] (partner 2 µM)
Method in brief: as §1

Elesclomol + Olaparib = compound: CN(NC(=O)CC(=O)NN(C)C(=S)c1ccccc1)C(=S)c1ccccc1 [Elesclomol] + O=C(c1cc(Cc2n[nH]c(=O)c3ccccc23)ccc1F)N1CCN(C(=O)C2CC2)CC1 [Olaparib] (partner 8 µM)
Method in brief: as §1

Elesclomol + Vorinostat = compound: CN(NC(=O)CC(=O)NN(C)C(=S)c1ccccc1)C(=S)c1ccccc1 [Elesclomol] + O=C(CCCCCCC(=O)Nc1ccccc1)NO [Vorinostat] (partner 1 µM)
Method in brief: as §1

Elesclomol + Alpelisib = compound: CN(NC(=O)CC(=O)NN(C)C(=S)c1ccccc1)C(=S)c1ccccc1 [Elesclomol] + Cc1nc(NC(=O)N2CCC[C@H]2C(N)=O)sc1-c1ccnc(C(C)(C)C(F)(F)F)c1 [Alpelisib] (partner 2 µM)
Method in brief: as §1

HCC-78
relative viability (Elesclomol + Pemetrexed; first compound 0.003162 µM): 0.901 | relative viability (Elesclomol + Pemetrexed; first compound 0.01 µM): 0.856 | relative viability (Elesclomol + Pemetrexed; first compound 0.03162 µM): 0.911 | relative viability (Elesclomol + Pemetrexed; first compound 0.1 µM): 0.956 | relative viability (Elesclomol + Decitabine; first compound 0.003162 µM): 0.727 | relative viability (Elesclomol + Decitabine; first compound 0.01 µM): 0.674 | relative viability (Elesclomol + Decitabine; first compound 0.03162 µM): 0.701 | relative viability (Elesclomol + Decitabine; first compound 0.1 µM): 0.564 | relative viability (Elesclomol + Olaparib; first compound 0.003162 µM): 0.735 | relative viability (Elesclomol + Olaparib; first compound 0.01 µM): 0.574 | relative viability (Elesclomol + Olaparib; first compound 0.03162 µM): 0.641 | relative viability (Elesclomol + Olaparib; first compound 0.1 µM): 0.945 | relative viability (Elesclomol + Vorinostat; first compound 0.003162 µM): 0.46 | relative viability (Elesclomol + Vorinostat; first compound 0.01 µM): 0.38 | relative viability (Elesclomol + Vorinostat; first compound 0.03162 µM): 0.36 | relative viability (Elesclomol + Vorinostat; first compound 0.1 µM): 0.553 | relative viability (Elesclomol + Alpelisib; first compound 0.003162 µM): 0.27 | relative viability (Elesclomol + Alpelisib; first compound 0.01 µM): 0.354 | relative viability (Elesclomol + Alpelisib; first compound 0.03162 µM): 0.325 | relative viability (Elesclomol + Alpelisib; first compound 0.1 µM): 0.307

UMC-11
relative viability (Elesclomol + Pemetrexed; first compound 0.003162 µM): 0.806 | relative viability (Elesclomol + Pemetrexed; first compound 0.01 µM): 0.655 | relative viability (Elesclomol + Pemetrexed; first compound 0.03162 µM): 0.478 | relative viability (Elesclomol + Pemetrexed; first compound 0.1 µM): 0.336 | relative viability (Elesclomol + Decitabine; first compound 0.003162 µM): 0.674 | relative viability (Elesclomol + Decitabine; first compound 0.01 µM): 0.582 | relative viability (Elesclomol + Decitabine; first compound 0.03162 µM): 0.276 | relative viability (Elesclomol + Decitabine; first compound 0.1 µM): 0.359 | relative viability (Elesclomol + Olaparib; first compound 0.003162 µM): 0.54 | relative viability (Elesclomol + Olaparib; first compound 0.01 µM): 0.338 | relative viability (Elesclomol + Olaparib; first compound 0.03162 µM): 0.279 | relative viability (Elesclomol + Olaparib; first compound 0.1 µM): 0.266 | relative viability (Elesclomol + Vorinostat; first compound 0.003162 µM): 0.391 | relative viability (Elesclomol + Vorinostat; first compound 0.01 µM): 0.333 | relative viability (Elesclomol + Vorinostat; first compound 0.03162 µM): 0.411 | relative viability (Elesclomol + Vorinostat; first compound 0.1 µM): 0.255 | relative viability (Elesclomol + Alpelisib; first compound 0.003162 µM): 0.949 | relative viability (Elesclomol + Alpelisib; first compound 0.01 µM): 0.931 | relative viability (Elesclomol + Alpelisib; first compound 0.03162 µM): 0.488 | relative viability (Elesclomol + Alpelisib; first compound 0.1 µM): 0.363

NCI-H1975
relative viability (Elesclomol + Pemetrexed; first compound 0.003162 µM): 0.298 | relative viability (Elesclomol + Pemetrexed; first compound 0.01 µM): 0.292 | relative viability (Elesclomol + Pemetrexed; first compound 0.03162 µM): 0.17 | relative viability (Elesclomol + Pemetrexed; first compound 0.1 µM): 0.133 | relative viability (Elesclomol + Decitabine; first compound 0.003162 µM): 0.387 | relative viability (Elesclomol + Decitabine; first compound 0.01 µM): 0.386 | relative viability (Elesclomol + Decitabine; first compound 0.03162 µM): 0.308 | relative viability (Elesclomol + Decitabine; first compound 0.1 µM): 0.189 | relative viability (Elesclomol + Olaparib; first compound 0.003162 µM): 0.752 | relative viability (Elesclomol + Olaparib; first compound 0.01 µM): 0.633 | relative viability (Elesclomol + Olaparib; first compound 0.03162 µM): 0.337 | relative viability (Elesclomol + Olaparib; first compound 0.1 µM): 0.183 | relative viability (Elesclomol + Vorinostat; first compound 0.003162 µM): 0.765 | relative viability (Elesclomol + Vorinostat; first compound 0.01 µM): 0.648 | relative viability (Elesclomol + Vorinostat; first compound 0.03162 µM): 0.183 | relative viability (Elesclomol + Vorinostat; first compound 0.1 µM): 0.12 | relative viability (Elesclomol + Alpelisib; first compound 0.003162 µM): 0.646 | relative viability (Elesclomol + Alpelisib; first compound 0.01 µM): 0.468 | relative viability (Elesclomol + Alpelisib; first compound 0.03162 µM): 0.229 | relative viability (Elesclomol + Alpelisib; first compound 0.1 µM): 0.11

COR-L23
relative viability (Elesclomol + Pemetrexed; first compound 0.003162 µM): 0.212 | relative viability (Elesclomol + Pemetrexed; first compound 0.01 µM): 0.206 | relative viability (Elesclomol + Pemetrexed; first compound 0.03162 µM): 0.19 | relative viability (Elesclomol + Pemetrexed; first compound 0.1 µM): 0.155 | relative viability (Elesclomol + Decitabine; first compound 0.003162 µM): 0.439 | relative viability (Elesclomol + Decitabine; first compound 0.01 µM): 0.347 | relative viability (Elesclomol + Decitabine; first compound 0.03162 µM): 0.282 | relative viability (Elesclomol + Decitabine; first compound 0.1 µM): 0.163 | relative viability (Elesclomol + Olaparib; first compound 0.003162 µM): 0.314 | relative viability (Elesclomol + Olaparib; first compound 0.01 µM): 0.254 | relative viability (Elesclomol + Olaparib; first compound 0.03162 µM): 0.143 | relative viability (Elesclomol + Olaparib; first compound 0.1 µM): 0.0895 | relative viability (Elesclomol + Vorinostat; first compound 0.003162 µM): 0.378 | relative viability (Elesclomol + Vorinostat; first compound 0.01 µM): 0.156 | relative viability (Elesclomol + Vorinostat; first compound 0.03162 µM): 0.144 | relative viability (Elesclomol + Vorinostat; first compound 0.1 µM): 0.0678 | relative viability (Elesclomol + Alpelisib; first compound 0.003162 µM): 0.694 | relative viability (Elesclomol + Alpelisib; first compound 0.01 µM): 0.366 | relative viability (Elesclomol + Alpelisib; first compound 0.03162 µM): 0.268 | relative viability (Elesclomol + Alpelisib; first compound 0.1 µM): 0.0856

SW 1573
relative viability (Elesclomol + Pemetrexed; first compound 0.003162 µM): 0.464 | relative viability (Elesclomol + Pemetrexed; first compound 0.01 µM): 0.158 | relative viability (Elesclomol + Pemetrexed; first compound 0.03162 µM): 0.115 | relative viability (Elesclomol + Pemetrexed; first compound 0.1 µM): 0.0205 | relative viability (Elesclomol + Decitabine; first compound 0.003162 µM): 0.173 | relative viability (Elesclomol + Decitabine; first compound 0.01 µM): 0.111 | relative viability (Elesclomol + Decitabine; first compound 0.03162 µM): 0.0529 | relative viability (Elesclomol + Decitabine; first compound 0.1 µM): 0.0067 | relative viability (Elesclomol + Olaparib; first compound 0.003162 µM): 0.201 | relative viability (Elesclomol + Olaparib; first compound 0.01 µM): 0.146 | relative viability (Elesclomol + Olaparib; first compound 0.03162 µM): 0.0695 | relative viability (Elesclomol + Olaparib; first compound 0.1 µM): 0.0085 | relative viability (Elesclomol + Vorinostat; first compound 0.003162 µM): 0.331 | relative viability (Elesclomol + Vorinostat; first compound 0.01 µM): 0.107 | relative viability (Elesclomol + Vorinostat; first compound 0.03162 µM): 0.112 | relative viability (Elesclomol + Vorinostat; first compound 0.1 µM): 0.0259 | relative viability (Elesclomol + Alpelisib; first compound 0.003162 µM): 0.728 | relative viability (Elesclomol + Alpelisib; first compound 0.01 µM): 0.211 | relative viability (Elesclomol + Alpelisib; first compound 0.03162 µM): 0.143 | relative viability (Elesclomol + Alpelisib; first compound 0.1 µM): 0.0815

NCI-H2126
relative viability (Elesclomol + Pemetrexed; first compound 0.003162 µM): 0.766 | relative viability (Elesclomol + Pemetrexed; first compound 0.01 µM): 0.59 | relative viability (Elesclomol + Pemetrexed; first compound 0.03162 µM): 0.686 | relative viability (Elesclomol + Pemetrexed; first compound 0.1 µM): 0.542 | relative viability (Elesclomol + Decitabine; first compound 0.003162 µM): 0.538 | relative viability (Elesclomol + Decitabine; first compound 0.01 µM): 0.616 | relative viability (Elesclomol + Decitabine; first compound 0.03162 µM): 0.558 | relative viability (Elesclomol + Decitabine; first compound 0.1 µM): 0.593 | relative viability (Elesclomol + Olaparib; first compound 0.003162 µM): 0.913 | relative viability (Elesclomol + Olaparib; first compound 0.01 µM): 0.886 | relative viability (Elesclomol + Olaparib; first compound 0.03162 µM): 0.887 | relative viability (Elesclomol + Olaparib; first compound 0.1 µM): 0.777 | relative viability (Elesclomol + Vorinostat; first compound 0.003162 µM): 0.852 | relative viability (Elesclomol + Vorinostat; first compound 0.01 µM): 0.642 | relative viability (Elesclomol + Vorinostat; first compound 0.03162 µM): 0.745 | relative viability (Elesclomol + Vorinostat; first compound 0.1 µM): 0.577 | relative viability (Elesclomol + Alpelisib; first compound 0.003162 µM): 0.719 | relative viability (Elesclomol + Alpelisib; first compound 0.01 µM): 0.713 | relative viability (Elesclomol + Alpelisib; first compound 0.03162 µM): 0.717 | relative viability (Elesclomol + Alpelisib; first compound 0.1 µM): 0.739
